# In patent publication US20040120938A1, “Ingestible compositions comprising antibacterial agents” (The University of Bath, priority 1998, published 2004):
# Read-outs that look alike come from different tables or passages of the source.
# Columns and labels:
# Lactobacillus casei 6375 = test: Bacterial growth rate by optical density, 96 well plate (Tests 8(f), 8(g)); format: cell-based
# Method: (§1) Bacteria were seeded into nutrient broth (NB) and grown over night at 37° C. The culture was then counted and normalised to give a final cell concentration of 1.8×10^7 cells well^−1 into the wells of a 96 well plate in fresh nutrient broth. The optical density of each well was monitored every 15 minutes as a measure of the growth rate of each bacterial species. Growth curves were generated for each species and the maximal rate of growth (logarithmic phase) was measured. Cells were treated to a range of experimental conditions in which the growth rate of cells was related to a control of untreated cells. The results were expressed as a percentage of the growth rate of the control cells.
# (§2) (i) At a fixed concentration of hypoxanthine (100 μM) a range of purified XO protein concentrations were added at time 0 minutes. The optical density was followed and the growth rate calculated.
# (§3) (ii) The growth rate was also measured in relation to the concentration of hypoxanthine, using 30 μg of XO with cells seeded as described above.
# (§4) (iv) The effect of XO hypoxanthine addition was measured on the growth rate of a range of bacterial species with 30 […] XO at varying hypoxanthine concentrations using cells seeded as described above.
# [1] = test system: Staphylococcus aureus 6751; test: as above; format: cell-based
# Method: as §1, §2, §3, §4
# [2] = test system: bacteria in pasteurised semi skimmed milk; details: 100 μM in pasteurised semi skimmed milk, 4-8° C., 8 days
# Method: Pasteurised semi skimmed milk 1 ml was aliquoted into 7 sterile plastic bijou bottles comprising control and treated hypoxanthine (Hxan) groups. […] The samples were stored refrigerated at 4-8° C. until required on a specific day when a control and treated sample was incubated at 37° C. for 30 minutes. A 100 μl aliquot was taken from each sample and spread onto nutrient agar which was then incubated over night at 37° C. The total number of colonies formed regardless of type was counted and expressed for each treatment as the colony forming units per ml of the original test sample (CFU ml^−1).
# [3] = test system: nitric oxide (NO) release; test: NO release from formula feeds with nitrite and NADH (Test 7); format: biochemical; details: inhibitor 100 μM
# Method: (§5) The production of nitric oxide in the following tests and examples was analysed using an ozone chemiluminescence assay in a continuous flow apparatus (Sievers NOA 280) that allows the real time analysis of NO production. The apparatus was modified to allow a constant stream of nitrogen to flow into the reaction chamber. Chemiluminescence data were collected by a data acquisition system; the mean NO produced in parts per billion (ppb) was calculated from readings taken every second and shown as ppb or mV.
# (§6) Progress curves, of molar production of NO against time, were calculated by taking into account the gas flow and the mean level of NO. Molar production of NO was expressed as ppb/sec or mV/sec. Reactions were carried out in a final volume of 1 ml at 37° C. in an atmosphere of <1% oxygen (Stathkelvin combination needle oxygen electrode, Diamond General Corp.).
# (§7) To the “substrates” bijou, 200 μl of 100 mM stock sodium nitrite was added together with 200 μl of the 5 mM reduced NADH to give an assay concentration of 20 mM nitrite and 1 mM reduced NADH.
# (§8) To the “milk” bijou were added 600 μl of milk sample to give an assay volume of 1 ml.
# (f) At t=5 minutes, the contents of the “milk” bijou were injected into the reaction cell using a 1 ml syringe and the release of NO was monitored for a further 20 minutes. […]
# [4] = test system: nitric oxide (NO) release; test: NO release from full fat milk with nitrite and NADH under hypoxia (Test 5); format: biochemical; details: inhibitor 100 μM; for inhibition of the increased NO release of milk gone off at 4° C.: milk kept at 4° C. more than 3 days
# Method: as §5, §6, §7, §8
# (f) At t=5 minutes, the contents of the “milk” bijou were injected into the reaction cell using a 1 ml syringe and the release of NO was monitored for a further 20 minutes. The set up was such that the reaction cell was a sealed system having an inlet gas flow of 200 ml/min and a sample extraction flow to the NOA-280 of 200 ml/min. The steady-state generation of NO (which corresponded to a plateau region on the trace of the NO production) was noted to give the mV/s release of NO from the 1 ml assay volume.
# Full fat milk was assayed with 20 mM nitrite and 1 mM NADH as described above in Test 1. […] 600 μl of milk was used in each test giving a protein content in each assay of 20.4 mg.
# The milk was taken and divided into two halves. One was kept at 4° C., and the other at −20° C. Samples of the milk were taken over several days and the generation of NO was investigated using the method described above.
# [5] = biological target: T1, bovine xanthine oxidase (XOR) (Bos taurus, UniProt P80457); test: NO release by XOR with known XOR inhibitors (Test 4); format: biochemical; details: inhibitor 100 μM in the XOR/nitrite/NADH assay of Test 1
# T1 construct: purchased Biozyme, Blaenavon, UK batch 104AX
# Method: Bovine xanthine oxidase was diluted with PBS as indicated in Table 1 below to give 300 μl of enzyme mixture. The enzyme mixture (300 μl) was mixed with 700 μl of a substrate mixture to give an assay volume of 1 ml. The substrate mixture comprised nitrite which was added to the assay to give a concentration of 1 mM and NADH which was added to give a concentration of 0.3 mM. Where, for example in Tests 2 to 4 below, additional components are added to the sample, the amount of PBS is adjusted accordingly to give an assay volume of 1 ml. The sample was placed in the reaction vessel of the NO determination apparatus under a nitrogen atmosphere and the generation of NO was measured and the results calculated as a steady state rate in mV/s. […] Two different inhibitors were used. Oxypurinol was used at a concentration of 100 μM. Oxypurinol is a molybdenum site-specific inhibitor. Diphenyliodonium (DPI) was used at a concentration of 100 μM. DPI is a FAD site inhibitor.
# Micrococcus sp = details: read-out: Half maximal concentration H2O2, bolus at beginning of logarithmic growth
# Method: as §1, §4
# Bacillus sp = details: read-out: Half maximal concentration H2O2, bolus at beginning of logarithmic growth
# Method: as §1, §4
# Staphylococcus aureus = test: Incubation of Staphylococcus aureus with SIN-1, growth; format: cell-based; details: in dependence on the amount added
# Method: Cells cultured as described above were diluted to suitable working concentrations (10^4-10^5 Cells Ml^−1) in sterile phosphate buffered saline (PBS). […] Aliquots were taken from the cell cultures and plated on to nutrient agar and incubated in a warm room at 37° C. overnight. Viable cells formed colonies on the agar and were counted. The number of colonies formed was related to an untreated control and a graph of the results is shown in FIG. 1, which illustrates the effect of ONOO^− on cell viability.
# superoxide = test: Measurable NO in the XO/hypoxanthine system with superoxide dismutase; format: biochemical; details: added to the Xo/hypoxanthine system; oxygen 0 to 2%
# T1 sequence (P80457 whole entry): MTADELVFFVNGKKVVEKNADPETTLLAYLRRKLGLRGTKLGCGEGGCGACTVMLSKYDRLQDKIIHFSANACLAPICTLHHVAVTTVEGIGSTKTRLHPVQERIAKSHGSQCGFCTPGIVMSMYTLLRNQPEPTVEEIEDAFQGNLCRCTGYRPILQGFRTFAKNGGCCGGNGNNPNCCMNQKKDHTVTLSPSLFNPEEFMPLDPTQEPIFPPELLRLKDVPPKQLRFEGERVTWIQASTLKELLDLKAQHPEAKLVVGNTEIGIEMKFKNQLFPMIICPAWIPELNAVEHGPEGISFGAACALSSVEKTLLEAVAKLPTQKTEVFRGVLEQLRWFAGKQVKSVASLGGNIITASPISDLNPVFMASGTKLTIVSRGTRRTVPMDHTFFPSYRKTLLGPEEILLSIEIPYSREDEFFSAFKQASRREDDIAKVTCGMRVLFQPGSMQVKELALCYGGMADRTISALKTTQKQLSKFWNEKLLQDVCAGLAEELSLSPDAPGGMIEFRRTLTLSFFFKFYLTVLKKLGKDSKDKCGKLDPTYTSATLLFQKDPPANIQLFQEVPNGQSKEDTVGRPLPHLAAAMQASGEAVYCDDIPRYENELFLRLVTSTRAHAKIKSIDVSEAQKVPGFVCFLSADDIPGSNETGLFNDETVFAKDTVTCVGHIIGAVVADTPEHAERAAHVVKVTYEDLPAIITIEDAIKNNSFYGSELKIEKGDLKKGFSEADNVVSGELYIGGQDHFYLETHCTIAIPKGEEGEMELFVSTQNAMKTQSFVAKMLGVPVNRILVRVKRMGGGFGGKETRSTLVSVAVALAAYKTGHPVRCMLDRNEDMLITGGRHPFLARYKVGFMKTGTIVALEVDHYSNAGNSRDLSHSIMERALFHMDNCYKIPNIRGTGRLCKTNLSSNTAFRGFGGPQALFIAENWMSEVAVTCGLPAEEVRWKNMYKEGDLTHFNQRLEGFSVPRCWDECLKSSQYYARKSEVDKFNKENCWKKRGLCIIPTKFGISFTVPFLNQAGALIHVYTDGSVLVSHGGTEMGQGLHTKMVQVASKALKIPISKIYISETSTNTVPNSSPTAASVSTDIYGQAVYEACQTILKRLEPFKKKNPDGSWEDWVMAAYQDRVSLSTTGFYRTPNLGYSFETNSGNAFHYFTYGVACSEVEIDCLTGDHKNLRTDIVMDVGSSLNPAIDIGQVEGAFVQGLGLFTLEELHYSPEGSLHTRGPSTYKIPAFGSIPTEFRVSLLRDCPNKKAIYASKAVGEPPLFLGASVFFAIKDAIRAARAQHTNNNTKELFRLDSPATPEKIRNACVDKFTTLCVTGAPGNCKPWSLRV
molecule,measurement,setting,value
"O=c1[nH]cnc2nc[nH]c12 [Hypoxanthine, hypoxanthine]",IC50,"Lactobacillus casei 6375; Lacticaseibacillus casei, 6375, Lactobacillus, at 30 μg XO, read-out: half maximal hypoxanthine dose",104 µM
same,growth rate,"[1]; Staphylococcus, in the presence of 30 μg XO",reduced the growth rate
same,total number of colonies formed (CFU ml^−1),[2],reduce the total number of colonies formed
"c1ccc([I+]c2ccccc2)cc1 [DPI, Diphenyliodonium]",inhibition of NO release of 7 days old Cow and Gate formula,[3],not inhibited
same,NO generation of fresh full fat milk with inhibitor,[4],no detectable NO generation
same,inhibition of the increased NO release of milk gone off at 4° C.,[4],not inhibited
same,NO release,[5],0.00 mV/s
"OO [H2O2, hydrogen peroxide]",IC50,"Lactobacillus casei 6375; read-out: Half maximal concentration H2O2, Lactobacillus casei, bolus at beginning of logarithmic growth",305 µM
same,growth inhibition,"[1]; S. aureus, 50% growth reduction not observed at the concentration ranges used",very limited
same,IC50,Micrococcus sp,19.5 µM
same,IC50,Bacillus sp,77.6 µM
"N=c1c[n+](N2CCOCC2)[n-]o1 [SIN-1, 3-morpholinosydnonimine]",growth of Staphylococcus aureus,Staphylococcus aureus,reduced growth
O=c1[nH]c(=O)c2c[nH]nc2[nH]1 [Oxypurinol],effect on XO/hypoxanthine growth inhibition,"Lactobacillus casei 6375; 30 μg XO and 200 μM hypoxanthine, range of concentrations",reduce the effect of XO/hypoxanthine growth inhibition in a dose dependent manner
same,"growth rate of Lactobacillus, added alone","Lactobacillus casei 6375; highest concentration, alone",no effect
same,inhibition of NO release of 7 days old Cow and Gate formula,[3],not inhibited
same,NO generation of fresh full fat milk with inhibitor,[4],no detectable NO generation
same,inhibition of the increased NO release of milk gone off at 4° C.,[4],not inhibited
same,NO release,[5],0.00 mV/s
superoxide dismutase,amount of measurable NO,superoxide,increase the amount of measurable NO
